In patent US20100266541A1, “METHODS AND AGENTS FOR […] IMMUNE RESPONSE” (priority 2006, published 2010):
Square brackets hold non-standard residues; d marks the D form. Peptide text beside a SMILES is read from it. * marks the point of attachment. Sta = CC(C)C[C@H](N)[C@@H](O)CC(=O)O; Isovaleryl = CC(C)CC(=O)*

Assays:
LC3-II = LC3-II accumulation by anti-LC3 Western blotting; type: cell-based, human; conditions: for LC3-II accumulation (Western blot, words): 10 hours; for LC3-II accumulation, density quantification of Western blots: 10 hours of CQ-treatment; for effect on LC3-II levels and hence macroautophagy: 293T, HaCat and MDAMC, 24 h, 1000 U/ml
Protocol: Cells were lysed in ice cold lysis buffer (50 mM Tris-HCl pH 8.0, 140 mM NaCl, 1 mM DTT, 1.5 mM MgCl2, 0.5% NP-40 with Complete protease inhibitor cocktail, Roche, Indianapolis, Ind.) for 5 mim on ice (about 10^6 cells/100 μl). Whole cells and cell debris were pelleted by low speed centrifugation (400 g, 3 mil) and cleared supernatants were transferred to a new tube. Protein concentration was determined by BCA protein assay (Pierce, Rockford, Ill.). […] Primary antibodies were visualized with HRP-conjugated goat anti-rabbit IgG (Biorad, Hercules; CA) and the ECLplus detection system (Amersham Biosciences, UK).
This also allowed for extension of the analysis from epithelial cell lines to MHC class II-positive cell types that are more difficult to transfect, such as B cell lines and primary monocytes/dendritic cells. The fact that autophagosome-associated LC3 (called LC3-II) and free cytosolic LC3 (called LC3-I) can be distinguished by their apparent molecular weights in SDS-PAGE gel electrophoresis (16 and 18 lcD, respectively) was used, since it can be quantified separately in anti-LC3 Western blots.

MDAMC cells = test: Colocalization of GFP-LC3 with compartment markers by confocal microscopy in MDAMC cells; type: cell-based, human
[1] = system: GFP-LC3 labeled autophagosomes; type: cell-based, human; set-up: accumulation of GFP-LC3-labeled autophagosomes: dose or concentration left out as unconfirmed
immature DCs = conditions: 10 hr of CQ treatment
[2] = system: MDAMC cells stably transfected with GFP-LC3; conditions: CQ-treated versus untreated cells
Protocol: MDAMC cells stably transfected with GFP-LC3 were fixed for 1 h at RT with 4% paraformaldehyde (PFA, Electron Microscopy Sciences) in 0.25 M Hepes, pH 7.4, followed by overnight fixation at 4° C. in 8% PFA/Hepes. Cells were washed 1× in PBS, quenched with 0.1 M NH4Cl in PBS for 10 min, scraped into 1% gelatin in PBS and then embedded in 5% gelatin in PBS. Small pieces of the gelatin pellets were infiltrated overnight at 4° C. with 2.3 M sucrose in PBS, mounted onto cryospecimen pins and frozen in liquid nitrogen. […] After quenching with 0.1 M NH4Cl in PBS for 10 min, the grids were incubated for 20 min in a solution of 1% fish skin gelatin (FSG, Sigma-Aldrich) in PBS. They were then labeled with rabbit anti-HLA-DR antiserum C6861 (a gift from Peter Cresswell, Yale University, New Haven, Conn.) in PBS-FSH for 30 min at RT, washed 4× in PBS and then incubated with 10 or 15 nm protein A-gold (purchased from the Department of Cell Biology, University of Utrecht, Netherlands). After 4 more washes in PBS, grids were fixed in 1% glutaraldehyde in PBS for 5 min at RT, washed 5× in PBS and again quenched with 0.1 M NH4Cl in PBS for 10 min. The same labeling procedure was repeated with a rabbit anti-GFP antibody (Invitrogen-Molecular Probes, Carlsbad, Calif.) and after final fixation in 1% glutaraldehyde, grids were washed 8× in HPLC-grade water.

atg12 = test: Knockdown of atg12 by siRNA in MDAMC cells; type: cell-based, human
Text: The following 21-nt siRNA oligos were used:
Atg12 antisense: 5′-[…]dT (SEQ ID NO:6; nt. 687-705 of NM_004707). As a control, lamin A/Cspecific siRNA from Dharmacon (Lamin sense: 5′-CUGGACUUCCAGAAGAACAdTdT (SEQ ID NO:7); Lamin antisense: 5′-UGUUCUUCUGGAAGUCCAGdTdT (SEQ ID NO:8) or firefly luciferase-specific siRNA (GL2 sense: 50-CGUACGCGGAAUACUUCGAdTdT; SEQ ID NO:9; GL2 antisense: 5′-UCGAAGUAUUCCGCGUACGdTdT; SEQ ID NO:10) was used. siRNA duplexes were delivered by transfection with lipofectamine 2000 (Invitrogen) at 30 pmol siRNA+[…] lipofectamine/well in a 24-well format, and effect of knockdown was analyzed after 2-3 days.

[3] = MDAMC cells, CQ 50 μM, E64 28 μM, Leupeptin 40 μM and Pepstatin A 15 μM together

`CC(C)C[C@H](NC(=O)[C@H]1O[C@@H]1C(=O)O)C(=O)NCCCCN=C(N)N` [E64] was tested, and the “LC3-II accumulation (Western blot, words)” value (LC3-II; [3]) was “strong accumulation of LC3-II”.

In the case of `CC(=O)N[C@@H](CC(C)C)C(=O)N[C@@H](CC(C)C)C(=O)N[C@H](C=O)CCCNC(=N)N` [Leupeptin], the “LC3-II accumulation (Western blot, words)” value (LC3-II; [3]) is reported as “strong accumulation of LC3-II”.

For `CC(C)CC(=O)N[C@H](C(=O)N[C@H](C(=O)N[C@@H](CC(C)C)[C@@H](O)CC(=O)N[C@@H](C)C(=O)N[C@@H](CC(C)C)[C@@H](O)CC(=O)O)C(C)C)C(C)C` [Pepstatin A] (Isovaleryl-VV[Sta]A[Sta]-OH), the “LC3-II accumulation (Western blot, words)” value (LC3-II; [3]) was “strong accumulation of LC3-II”.

In the case of `CCN(CC)CCCC(C)Nc1ccnc2cc(Cl)ccc12` (stereo not drawn) [chloroquine], the “LC3-II accumulation, density quantification of Western blots” value (“LC3-II accumulation … of Western blots” below) (LC3-II; 293 cells) is reported as 30 fold, the “onset of increase of cellular LC3-II levels” value (LC3-II; HaCat cell line, time course) is reported as “already increased 1 hour after CQ-treatment” and the “LC3-II accumulation … of Western blots” value (LC3-II; HaCat cells) is reported as 5 fold. For the same compound, the “LC3-II accumulation … of Western blots” value (LC3-II; MDAMC cells) was 5 fold, the “LC3-II accumulation (Western blot, words)” value (LC3-II; [3]) was “strong accumulation of LC3-II” and the “LC3-II accumulation (Western blot, words)” value (LC3-II; epithelial and B cell lines, CD14+ monocytes, dendritic cells) was “strongly accumulated”. The “HLA-DM colocalization with GFP-LC3, LSM510 histogram tool” value (MDAMC cells; IFNγ-treated MDAMC, after chloroquine treatment (38 untreated)) was 45%, the “MHC class II colocalization with GFP-LC3, LSM510 histogram tool” value (MDAMC cells; IFNγ-treated MDAMC, after chloroquine treatment (40 untreated)) was 44% and the “HLA-DM+ vesicles colocalized with GFP-LC3, LSM 510 profile tool” value (MDAMC cells; IFNγ-treated MDAMC, after chloroquine treatment (52 untreated)) was 71%. The “MHC class II+ compartments colocalized with GFP-LC3, LSM 510 profile tool” value (MDAMC cells; IFNγ-treated MDAMC, after chloroquine treatment (58 untreated)) was 86%, the “EEA1 colocalization with GFP-LC3, histogram analysis” value (MDAMC cells; MDAMC, after chloroquine treatment (7% untreated)) was 21% and the “EEA1 colocalization with GFP-LC3, profile analysis” value (MDAMC cells; MDAMC, after chloroquine treatment (9% untreated)) was 26%. The “accumulation of GFP-LC3-labeled autophagosomes” value ([1]; B-LCL, immature and mature DCs, chloroquine for 10 hr) was “strongly accumulated”, the “accumulation of GFP-LC3 in cytosolic vesicles” value ([1]; HaCat, HeLa, MDAMC, 293 cell lines, 10 hours of CQ-treatment) was “strongly accumulated in cytosolic vesicles” and the “MHC class II-labeled compartments positive for GFP-LC3” value (immature DCs) was 41% (±7%). The “frequency of GFP-LC3/MHC class II double-labeled multivesicular compartments” value [2] was “found much more frequently”.

“ATG12 siRNA: 21-nt siRNA duplex against atg12, SEQ ID NO: 5 and 6 (nt. 687-705 of NM_004707) (chain 1 UCAACUUGCUACUACAUGAUDT; chain 2 UCAUGUAGUAGCAAGUUGAUDT; chemistry not fully specified; listed as Homo sapiens)” was tested, and the “accumulation of GFP-LC3+ vesicles upon CQ treatment after knockdown” value (atg12; MDAMC cells stably expressing GFP-LC3, 2 days after transfection, CQ 6 hr) was “completely abrogates accumulation of these vesicles” and the “colocalization of MP1-LC3-containing vesicles with MHC class II compartments after knockdown” value (atg12; MDAMC cells stably expressing MP1-LC3, IFNγ 200 U/ml, 50 μM chloroquine last 6 hours) was “completely abrogated”.

IFN-α was tested, and the “effect on LC3-II levels and hence macroautophagy” value (LC3-II) was “not affected”.

With IFNγ: Recombinant human IFNγ the “effect on LC3-II levels and hence macroautophagy” value (LC3-II) was “not affected” and the “formation of MHC class II positive compartments” value (MDAMC cells; human epithelial cell lines, IFNγ treatment) was “induced the formation of MHC class II positive compartments”.
